{"source": "paper PMC2915760", "about": "(Bioorganic & medicinal chemistry, 2010)", "biological_target": "T1, Lyp-CCPGCC (lymphoid-specific protein tyrosine phosphatase, PTPN22, engineered insertion mutant) (Homo sapiens, UniProt Q9Y2R2, INS199CCPGCC)", "T1 sequence (Q9Y2R2 with tags, fused parts or gaps INS199CCPGCC)": "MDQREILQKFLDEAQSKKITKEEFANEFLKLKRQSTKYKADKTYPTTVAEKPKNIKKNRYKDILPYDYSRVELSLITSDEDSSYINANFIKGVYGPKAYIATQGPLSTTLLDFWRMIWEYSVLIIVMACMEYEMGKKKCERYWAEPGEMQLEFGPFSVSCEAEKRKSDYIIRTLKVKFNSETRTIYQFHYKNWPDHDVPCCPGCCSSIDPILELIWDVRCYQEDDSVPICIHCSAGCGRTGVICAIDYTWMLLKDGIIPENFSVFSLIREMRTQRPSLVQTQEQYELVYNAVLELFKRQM", "assay": "FlAsH fluorescence titration with purified Lyp-CCPGCC", "format": "binding", "note": "pKd: −log10 of the molar value.", "data": [{"smiles": "O=C1OC2(c3ccccc31)c1ccc(O)c([As]3SCCS3)c1Oc1c2ccc(O)c1[As]1SCCS1", "note": "[FlAsH]", "values": [{"measurement": "pKd", "value": 7.17}]}]}
